Results: ChEMBL document CHEMBL4507304, “Data for DCP probe TP-021” (2021)

Columns and labels:
[1] = target: Myotonin-protein kinase (Homo sapiens) (UniProt Q09013); settings: Compound concentration 1000.0 nM
[2] = target: Serine/threonine-protein kinase 35 (Homo sapiens) (UniProt Q8TDR2); settings: Compound concentration 1000.0 nM
[3] = target: Dual specificity protein kinase CLK4 (Homo sapiens) (UniProt Q9HAZ1); settings: Compound concentration 1000.0 nM
[4] = target: Death-associated protein kinase 2 (Homo sapiens) (UniProt Q9UIK4); settings: Compound concentration 1000.0 nM
[5] = target: Serine/threonine-protein kinase Nek7 (Homo sapiens) (UniProt Q8TDX7); settings: Compound concentration 1000.0 nM
[6] = target: Eukaryotic translation initiation factor 2-alpha kinase 1 (Homo sapiens) (UniProt Q9BQI3); settings: Compound concentration 1000.0 nM
[7] = target: Ribosomal protein S6 kinase beta-1 (Homo sapiens) (UniProt P23443); settings: Compound concentration 1000.0 nM
[8] = target: Serine/threonine-protein kinase PLK3 (Homo sapiens) (UniProt Q9H4B4); settings: Compound concentration 1000.0 nM
[9] = target: LIM domain kinase 1 (Homo sapiens) (UniProt P53667); settings: Compound concentration 1000.0 nM
[10] = target: Phosphatidylinositol 4-phosphate 5-kinase type-1 gamma (Homo sapiens) (UniProt O60331); settings: Compound concentration 1000.0 nM
[11] = target: Ribosomal protein S6 kinase alpha-1 (Homo sapiens) (UniProt Q15418); settings: Compound concentration 1000.0 nM
[12] = system: Mast/stem cell growth factor receptor Kit (Homo sapiens), P10721 [D816H]; settings: Compound concentration 1000.0 nM
[13] = target: 5-hydroxytryptamine receptor 1D (Homo sapiens) (UniProt P28221); settings: Compound concentration 10.0 uM
[14] = target: Calcium/calmodulin-dependent protein kinase type 1 (Homo sapiens) (UniProt Q14012); settings: Compound concentration 1000.0 nM
[15] = target: D(1A) dopamine receptor (Homo sapiens) (UniProt P21728); settings: Compound concentration 10.0 uM
[16] = target: Cyclin-dependent kinase 4 (Homo sapiens) (UniProt P11802); settings: Compound concentration 1000.0 nM
[17] = target: Epidermal growth factor receptor (Homo sapiens) (UniProt P00533); settings: Compound concentration 1000.0 nM
[18] = target: Mitogen-activated protein kinase kinase kinase 4 (Homo sapiens) (UniProt Q9Y6R4); settings: Compound concentration 1000.0 nM
[19] = target: Cyclin-G-associated kinase (Homo sapiens) (UniProt O14976); settings: Compound concentration 1000.0 nM
[20] = target: Tyrosine-protein kinase ZAP-70 (Homo sapiens) (UniProt P43403); settings: Compound concentration 1000.0 nM
[21] = system: Mast/stem cell growth factor receptor Kit (Homo sapiens), P10721 [V559D]; settings: Compound concentration 1000.0 nM
[22] = target: Tyrosine-protein kinase Tec (Homo sapiens) (UniProt P42680); settings: Compound concentration 1000.0 nM
[23] = target: Histamine H4 receptor (Homo sapiens) (UniProt Q9H3N8); settings: Compound concentration 10.0 uM
[24] = target: 5'-AMP-activated protein kinase catalytic subunit alpha-2 (Homo sapiens) (UniProt P54646); settings: Compound concentration 1000.0 nM
[25] = target: STE20-like serine/threonine-protein kinase (Homo sapiens) (UniProt Q9H2G2); settings: Compound concentration 1000.0 nM
[26] = target: Ephrin type-A receptor 4 (Homo sapiens) (UniProt P54764); settings: Compound concentration 1000.0 nM
[27] = target: Serine/threonine-protein kinase SBK1 (Homo sapiens) (UniProt Q52WX2); settings: Compound concentration 1000.0 nM
[28] = target: Vascular endothelial growth factor receptor 3 (Homo sapiens) (UniProt P35916); settings: Compound concentration 1000.0 nM
[29] = target: Mitogen-activated protein kinase kinase kinase 5 (Homo sapiens) (UniProt Q99683); settings: Compound concentration 1000.0 nM
[30] = target: Bone morphogenetic protein receptor type-1A (Homo sapiens) (UniProt P36894); settings: Compound concentration 1000.0 nM
[31] = target: Ribosomal protein S6 kinase alpha-4 (Homo sapiens) (UniProt O75676); settings: Compound concentration 1000.0 nM
[32] = target: Calcium/calmodulin-dependent protein kinase kinase 1 (Homo sapiens) (UniProt Q8N5S9); settings: Compound concentration 1000.0 nM
[33] = target: Histamine H3 receptor (Homo sapiens) (UniProt Q9Y5N1); settings: Compound concentration 10.0 uM
[34] = target: Cyclin-dependent kinase 3 (Homo sapiens) (UniProt Q00526); settings: Compound concentration 1000.0 nM
[35] = target: Mitogen-activated protein kinase 1 (Homo sapiens) (UniProt P28482); settings: Compound concentration 1000.0 nM
[36] = target: Uncharacterized serine/threonine-protein kinase SBK3 (Homo sapiens) (UniProt P0C264); settings: Compound concentration 1000.0 nM
[37] = target: Rho-associated protein kinase 2 (Homo sapiens) (UniProt O75116); settings: Compound concentration 1000.0 nM
[38] = target: Serine/threonine-protein kinase PLK1 (Homo sapiens) (UniProt P53350); settings: Compound concentration 1000.0 nM
[39] = target: Proto-oncogene tyrosine-protein kinase Src (Homo sapiens) (UniProt P12931); settings: Compound concentration 1000.0 nM
[40] = target: Serine/threonine-protein kinase 24 (Homo sapiens) (UniProt Q9Y6E0); settings: Compound concentration 1000.0 nM
[41] = target: Interleukin-1 receptor-associated kinase 3 (Homo sapiens) (UniProt Q9Y616); settings: Compound concentration 1000.0 nM
[42] = target: Mitogen-activated protein kinase kinase kinase 15 (Homo sapiens) (UniProt Q6ZN16); settings: Compound concentration 1000.0 nM
[43] = target: Phosphatidylinositol 3-kinase C2 domain-containing subunit gamma (Homo sapiens) (UniProt O75747); settings: Compound concentration 1000.0 nM
[44] = system: Epidermal growth factor receptor (Homo sapiens), P00533 [UNDEFINED MUTATION]; settings: Compound concentration 1000.0 nM
[45] = target: Serine/threonine-protein kinase 38 (Homo sapiens) (UniProt Q15208); settings: Compound concentration 1000.0 nM
Serine/threonine-protein kinase 38 (Homo sapiens), sequence (Q15208 2-465 limits assumed): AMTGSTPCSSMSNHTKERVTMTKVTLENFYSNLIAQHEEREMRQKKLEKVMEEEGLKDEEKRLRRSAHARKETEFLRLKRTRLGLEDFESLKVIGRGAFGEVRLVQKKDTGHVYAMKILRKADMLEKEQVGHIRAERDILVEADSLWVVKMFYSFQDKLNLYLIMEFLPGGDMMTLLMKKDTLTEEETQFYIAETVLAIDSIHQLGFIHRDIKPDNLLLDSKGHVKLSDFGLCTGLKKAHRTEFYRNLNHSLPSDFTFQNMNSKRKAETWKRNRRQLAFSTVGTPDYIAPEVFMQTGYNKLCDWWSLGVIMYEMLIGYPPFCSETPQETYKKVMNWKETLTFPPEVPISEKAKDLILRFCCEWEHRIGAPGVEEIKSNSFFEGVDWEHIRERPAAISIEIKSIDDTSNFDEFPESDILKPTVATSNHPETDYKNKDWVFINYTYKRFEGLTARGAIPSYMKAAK

Proto-oncogene tyrosine-protein kinase Src (Homo sapiens), sequence (P12931 2-536 limits assumed): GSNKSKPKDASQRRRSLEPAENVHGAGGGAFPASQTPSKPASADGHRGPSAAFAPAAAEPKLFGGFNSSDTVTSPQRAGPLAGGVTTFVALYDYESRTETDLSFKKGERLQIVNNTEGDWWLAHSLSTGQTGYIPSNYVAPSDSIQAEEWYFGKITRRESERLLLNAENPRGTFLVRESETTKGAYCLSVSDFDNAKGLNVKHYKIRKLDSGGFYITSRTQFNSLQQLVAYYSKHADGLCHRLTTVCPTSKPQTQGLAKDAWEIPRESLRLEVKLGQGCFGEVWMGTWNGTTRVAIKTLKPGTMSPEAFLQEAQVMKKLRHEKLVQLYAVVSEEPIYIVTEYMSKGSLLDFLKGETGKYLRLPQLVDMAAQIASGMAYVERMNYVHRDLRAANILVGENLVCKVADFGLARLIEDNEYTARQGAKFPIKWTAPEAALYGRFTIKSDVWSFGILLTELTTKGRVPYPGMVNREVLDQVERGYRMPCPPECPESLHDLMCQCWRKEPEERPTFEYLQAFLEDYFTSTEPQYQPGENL
LIM domain kinase 1 (Homo sapiens), sequence (P53667 whole entry, looked up, the tested form may be a part): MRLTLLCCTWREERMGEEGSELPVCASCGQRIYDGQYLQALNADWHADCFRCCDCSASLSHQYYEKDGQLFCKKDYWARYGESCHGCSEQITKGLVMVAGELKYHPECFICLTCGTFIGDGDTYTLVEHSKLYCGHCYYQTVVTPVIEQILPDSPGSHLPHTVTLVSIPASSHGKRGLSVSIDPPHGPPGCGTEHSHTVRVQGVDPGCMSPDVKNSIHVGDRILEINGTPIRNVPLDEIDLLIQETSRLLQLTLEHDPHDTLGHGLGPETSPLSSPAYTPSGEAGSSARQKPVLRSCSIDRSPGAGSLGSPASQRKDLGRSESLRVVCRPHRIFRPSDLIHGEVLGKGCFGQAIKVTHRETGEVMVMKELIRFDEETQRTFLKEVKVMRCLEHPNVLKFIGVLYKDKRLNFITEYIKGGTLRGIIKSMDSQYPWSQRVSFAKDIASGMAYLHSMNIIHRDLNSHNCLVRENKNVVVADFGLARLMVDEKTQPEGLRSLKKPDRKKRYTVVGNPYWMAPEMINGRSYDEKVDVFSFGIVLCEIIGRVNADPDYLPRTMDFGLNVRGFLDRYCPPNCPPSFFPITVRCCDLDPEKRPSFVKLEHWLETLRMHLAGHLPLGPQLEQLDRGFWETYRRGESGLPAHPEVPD
Serine/threonine-protein kinase PLK3 (Homo sapiens), sequence (Q9H4B4 whole entry, looked up, the tested form may be a part): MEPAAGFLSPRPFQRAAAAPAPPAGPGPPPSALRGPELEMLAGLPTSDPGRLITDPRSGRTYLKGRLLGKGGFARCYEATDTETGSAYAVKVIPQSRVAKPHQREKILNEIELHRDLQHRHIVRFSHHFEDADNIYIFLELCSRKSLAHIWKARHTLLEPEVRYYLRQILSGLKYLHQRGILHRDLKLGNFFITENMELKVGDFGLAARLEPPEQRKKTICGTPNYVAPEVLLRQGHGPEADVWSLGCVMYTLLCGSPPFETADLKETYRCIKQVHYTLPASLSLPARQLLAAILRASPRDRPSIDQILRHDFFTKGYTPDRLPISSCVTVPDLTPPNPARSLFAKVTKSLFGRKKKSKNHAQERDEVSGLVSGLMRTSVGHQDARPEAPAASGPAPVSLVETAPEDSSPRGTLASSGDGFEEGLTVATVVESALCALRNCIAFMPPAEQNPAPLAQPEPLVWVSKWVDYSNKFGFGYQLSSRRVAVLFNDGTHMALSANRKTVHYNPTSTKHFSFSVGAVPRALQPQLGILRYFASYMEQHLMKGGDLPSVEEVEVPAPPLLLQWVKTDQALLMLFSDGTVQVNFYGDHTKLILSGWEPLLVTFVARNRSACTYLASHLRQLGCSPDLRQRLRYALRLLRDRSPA
Mitogen-activated protein kinase kinase kinase 15 (Homo sapiens), sequence (Q6ZN16 whole entry, the tested form may be a part): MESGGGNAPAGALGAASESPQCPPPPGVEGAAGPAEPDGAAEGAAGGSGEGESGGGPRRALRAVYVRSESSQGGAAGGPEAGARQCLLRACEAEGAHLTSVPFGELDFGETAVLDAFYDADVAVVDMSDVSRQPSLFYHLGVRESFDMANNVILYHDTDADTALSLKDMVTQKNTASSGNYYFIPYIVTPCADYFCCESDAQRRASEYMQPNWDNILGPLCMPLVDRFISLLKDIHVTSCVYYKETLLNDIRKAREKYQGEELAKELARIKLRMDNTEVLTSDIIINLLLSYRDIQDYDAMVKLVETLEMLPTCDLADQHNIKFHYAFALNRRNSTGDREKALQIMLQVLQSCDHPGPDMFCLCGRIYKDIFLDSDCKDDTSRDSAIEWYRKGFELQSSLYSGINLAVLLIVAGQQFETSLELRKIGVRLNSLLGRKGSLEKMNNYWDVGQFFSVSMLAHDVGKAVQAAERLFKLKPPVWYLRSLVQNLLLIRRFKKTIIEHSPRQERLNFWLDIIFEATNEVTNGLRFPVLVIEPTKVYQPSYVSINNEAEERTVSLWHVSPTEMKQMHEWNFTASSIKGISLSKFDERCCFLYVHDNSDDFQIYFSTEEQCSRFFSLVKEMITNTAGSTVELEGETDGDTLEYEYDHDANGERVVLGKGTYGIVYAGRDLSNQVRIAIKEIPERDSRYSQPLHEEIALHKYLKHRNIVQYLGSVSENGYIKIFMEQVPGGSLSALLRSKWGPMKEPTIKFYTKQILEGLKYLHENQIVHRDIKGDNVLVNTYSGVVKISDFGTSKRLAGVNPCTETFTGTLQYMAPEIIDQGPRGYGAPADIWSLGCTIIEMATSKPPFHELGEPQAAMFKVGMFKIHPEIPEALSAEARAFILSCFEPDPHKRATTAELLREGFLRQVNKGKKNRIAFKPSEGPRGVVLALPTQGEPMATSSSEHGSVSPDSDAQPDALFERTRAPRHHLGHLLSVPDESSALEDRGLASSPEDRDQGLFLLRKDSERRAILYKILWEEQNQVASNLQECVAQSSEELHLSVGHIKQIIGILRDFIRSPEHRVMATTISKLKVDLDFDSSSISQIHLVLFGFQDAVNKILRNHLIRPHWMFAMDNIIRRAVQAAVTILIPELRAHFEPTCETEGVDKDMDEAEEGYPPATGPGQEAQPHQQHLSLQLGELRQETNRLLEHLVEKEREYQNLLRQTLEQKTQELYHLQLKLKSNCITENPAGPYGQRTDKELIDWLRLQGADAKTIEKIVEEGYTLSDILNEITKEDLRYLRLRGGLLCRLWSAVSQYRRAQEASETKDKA
Phosphatidylinositol 3-kinase C2 domain-containing subunit gamma (Homo sapiens), sequence (O75747 whole entry, the tested form may be a part): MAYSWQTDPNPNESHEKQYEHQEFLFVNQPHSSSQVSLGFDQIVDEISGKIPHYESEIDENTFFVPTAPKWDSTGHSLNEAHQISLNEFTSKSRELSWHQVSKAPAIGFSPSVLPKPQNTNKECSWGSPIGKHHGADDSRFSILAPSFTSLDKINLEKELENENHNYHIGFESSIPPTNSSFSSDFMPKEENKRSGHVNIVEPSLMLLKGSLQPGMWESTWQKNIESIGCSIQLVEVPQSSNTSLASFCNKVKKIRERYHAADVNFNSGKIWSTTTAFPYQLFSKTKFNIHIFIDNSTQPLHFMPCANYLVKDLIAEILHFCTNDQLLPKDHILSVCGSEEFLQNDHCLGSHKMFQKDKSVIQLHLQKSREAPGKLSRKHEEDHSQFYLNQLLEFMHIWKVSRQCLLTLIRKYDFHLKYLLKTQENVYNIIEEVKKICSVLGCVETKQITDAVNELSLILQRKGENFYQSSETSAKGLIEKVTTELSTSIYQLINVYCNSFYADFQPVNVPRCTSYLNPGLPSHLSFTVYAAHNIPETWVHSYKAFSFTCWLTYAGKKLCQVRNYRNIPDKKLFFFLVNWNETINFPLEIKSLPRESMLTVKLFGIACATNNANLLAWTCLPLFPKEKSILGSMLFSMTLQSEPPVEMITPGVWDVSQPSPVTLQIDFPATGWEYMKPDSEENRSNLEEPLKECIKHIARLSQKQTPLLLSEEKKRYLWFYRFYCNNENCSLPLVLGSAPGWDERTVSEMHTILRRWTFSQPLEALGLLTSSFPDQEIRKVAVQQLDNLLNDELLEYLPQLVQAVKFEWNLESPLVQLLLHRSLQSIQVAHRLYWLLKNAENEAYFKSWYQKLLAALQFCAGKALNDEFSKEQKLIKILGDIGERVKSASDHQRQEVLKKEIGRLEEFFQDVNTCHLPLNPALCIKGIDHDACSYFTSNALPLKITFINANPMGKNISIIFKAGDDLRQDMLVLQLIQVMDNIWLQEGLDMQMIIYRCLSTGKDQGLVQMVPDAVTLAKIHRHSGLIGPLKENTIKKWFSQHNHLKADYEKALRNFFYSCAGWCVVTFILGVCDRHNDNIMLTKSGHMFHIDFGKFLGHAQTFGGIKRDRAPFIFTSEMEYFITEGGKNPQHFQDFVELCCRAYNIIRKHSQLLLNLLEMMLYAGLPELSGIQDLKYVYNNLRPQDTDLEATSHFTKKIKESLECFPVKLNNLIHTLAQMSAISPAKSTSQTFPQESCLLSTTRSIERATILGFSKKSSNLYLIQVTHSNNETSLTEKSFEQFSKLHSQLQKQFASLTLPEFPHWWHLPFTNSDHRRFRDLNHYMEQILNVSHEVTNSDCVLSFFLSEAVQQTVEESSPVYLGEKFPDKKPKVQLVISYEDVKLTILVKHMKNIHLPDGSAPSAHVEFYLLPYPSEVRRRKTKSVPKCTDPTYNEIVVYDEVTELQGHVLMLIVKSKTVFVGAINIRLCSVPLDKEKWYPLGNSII

N#Cc1ccc(Nc2ccc3[nH]c(=O)[nH]c3c2)c(Cl)c1
inactive: residual activity [1] 81% | residual activity [2] 100% | residual activity [3] 98% | residual activity [4] 92% | residual activity [5] 100% | residual activity [6] 100% | residual activity [7] 100% | residual activity [8] 84% | residual activity [9] 100% | residual activity [10] 67% | residual activity [11] 100% | residual activity [12] 99% | inhibition [13] 3.68% | residual activity [14] 86% | inhibition [15] -7.86% | residual activity [16] 100% | residual activity [17] 100% | residual activity [18] 95% | residual activity [19] 100% | residual activity [20] 90% | residual activity [21] 100% | residual activity [22] 96% | inhibition [23] 4.43% | residual activity [24] 81% | residual activity [25] 100% | residual activity [26] 100% | residual activity [27] 93% | residual activity [28] 100% | residual activity [29] 90% | residual activity [30] 100% | residual activity [31] 70% | residual activity [32] 100% | inhibition [33] 8.47% | residual activity [34] 100% | residual activity [35] 100% | residual activity [36] 96% | residual activity [37] 100% | residual activity [38] 100% | residual activity [39] 92% | residual activity [40] 100% | residual activity [41] 94% | residual activity [42] 68% | residual activity [43] 95% | residual activity [44] 100% | residual activity [45] 95%

O=C1CCc2cc(Nc3cc(OC4CCOCC4)c([N+](=O)[O-])cc3Cl)ccc2N1
inactive: residual activity [1] 96% | residual activity [2] 100% | residual activity [3] 88% | residual activity [4] 79% | residual activity [5] 87% | residual activity [6] 100% | residual activity [7] 100% | residual activity [8] 88% | residual activity [9] 100% | residual activity [10] 100% | residual activity [11] 100% | residual activity [12] 100% | inhibition [13] 18.6% | residual activity [14] 93% | inhibition [15] 7.4% | residual activity [16] 81% | residual activity [17] 100% | residual activity [18] 85% | residual activity [19] 100% | residual activity [20] 91% | residual activity [21] 100% | residual activity [22] 82% | inhibition [23] 11.6% | residual activity [24] 100% | residual activity [25] 100% | residual activity [26] 84% | residual activity [27] 97% | residual activity [28] 97% | residual activity [29] 84% | residual activity [30] 97% | residual activity [31] 65% | residual activity [32] 100% | inhibition [33] 15.1% | residual activity [34] 100% | residual activity [35] 99% | residual activity [36] 100% | residual activity [37] 100% | residual activity [38] 100% | residual activity [39] 100% | residual activity [40] 97% | residual activity [41] 98% | residual activity [42] 78% | residual activity [43] 94% | residual activity [44] 92% | residual activity [45] 88%
